{"source": "paper PMC7059125", "about": "(Bioorganic & medicinal chemistry letters, 2018)", "target": "mushroom tyrosinase (Agaricus bisporus, UniProt C7FF04)", "sequence (C7FF04 1-392)": "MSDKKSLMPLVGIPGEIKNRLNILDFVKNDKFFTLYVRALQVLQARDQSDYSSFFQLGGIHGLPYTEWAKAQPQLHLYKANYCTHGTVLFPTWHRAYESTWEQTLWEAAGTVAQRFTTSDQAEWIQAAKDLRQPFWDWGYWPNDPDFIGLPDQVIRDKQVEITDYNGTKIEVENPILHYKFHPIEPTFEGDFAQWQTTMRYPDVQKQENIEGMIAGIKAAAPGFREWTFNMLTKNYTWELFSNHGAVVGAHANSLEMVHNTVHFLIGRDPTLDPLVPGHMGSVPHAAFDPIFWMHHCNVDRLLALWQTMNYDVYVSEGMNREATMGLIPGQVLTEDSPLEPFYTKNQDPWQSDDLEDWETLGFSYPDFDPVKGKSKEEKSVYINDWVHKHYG", "assay": "Tyrosinase inhibitory assay", "format": "biochemical", "key": {"[1]": {"settings": "percent inhibition at 500 μM, versus carvacrol (1)"}}}
{"smiles": "CCOc1cc(C(C)C)ccc1C", "note": "[Compound 3, ethyl carvacrol]", "values": [{"measurement": "fold increase in activity relative to carvacrol", "setting": "[1]", "result": 1.6, "unit": "fold"}]}
{"smiles": "CCOc1cc(C(C)C)c(C(=O)CCC(=O)O)cc1C", "note": "[Compound 5]", "values": [{"measurement": "fold decrease in activity relative to carvacrol", "setting": "[1]", "result": 2.1, "unit": "fold"}]}
{"smiles": "CCCCOC(=O)CCC(=O)c1cc(C(C)C)c(OCC)cc1C", "note": "[Compound 18]", "values": [{"measurement": "inhibition at 500 µM", "result": "100 ± 3.9", "unit": "%"}]}
